According to patent US6534542B2, “(2-hydroxy)ethyl-thioureas useful as modulators of α2B adrenergic receptors” (Allergen Sales, Inc., priority 2001, dated 2003):

Assays:
alpha2B receptor = target: T1, alpha2B receptor (Homo sapiens, UniProt P18089); test: Receptor Selection and Amplification Technology (RSAT) assay, alpha2B; format: cell-based; conditions: NIH-3T3 cells; for EC50: NA = not active at concentrations less than 10 micromolar, read-out: RSAT EC50 (nM) Alpha 2B; for fraction of activity of the standard (brimonidine) attained, Alpha 2B (number in parenthesis): ratio of maximal effect to that of standard full agonist brimonidine
T1 construct: expressed in transfected cells; host or cells: NIH-3T3
T1 sequence (P18089 1-450): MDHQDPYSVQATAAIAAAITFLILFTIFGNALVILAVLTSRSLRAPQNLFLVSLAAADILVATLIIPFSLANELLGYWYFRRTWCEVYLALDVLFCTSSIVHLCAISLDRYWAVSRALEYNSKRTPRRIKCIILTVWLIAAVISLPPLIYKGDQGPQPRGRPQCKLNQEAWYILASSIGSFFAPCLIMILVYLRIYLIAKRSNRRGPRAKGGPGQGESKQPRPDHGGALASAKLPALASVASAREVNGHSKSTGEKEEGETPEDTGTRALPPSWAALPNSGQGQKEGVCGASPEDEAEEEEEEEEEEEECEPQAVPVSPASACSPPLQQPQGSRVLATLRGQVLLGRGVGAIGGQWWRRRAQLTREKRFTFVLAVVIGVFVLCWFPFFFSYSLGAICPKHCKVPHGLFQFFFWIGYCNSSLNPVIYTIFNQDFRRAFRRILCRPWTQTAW
Text: (§1) The compounds of the invention are agonists of α2 adrenergic receptors, particularly they tend to be specific or selective agonists of α2B and/or to a lesser extent α2C adrenergic receptors, in preference over α2A adrenergic receptors. […] Al., 1995, Pharmacol. Toxicol. 76, pp. 308-311 (incorporated herein by reference) and is also described below. Another reference pertinent to this assay is Conklin et al. (1993) Nature 363:274-6, also incorporated herein by reference.
(§2) The RSAT assay measures a receptor-mediated loss of contact inhibition that results in selective proliferation of receptor-containing cells in a mixed population of confluent cells. The increase in cell number is assessed with an appropriate transfected marker gene such as β-galactosidase, the activity of which can be easily measured in a 96-well format. Receptors that activate the G protein, Gq, elicit this response. Alpha2 receptors, which normally couple to Gi, activate the RSAT response when coexpressed with a hybrid Gq protein that has a Gi receptor recognition domain, called Gq/i5^2.
(§3) NIH-3T3 cells are plated at a density of 2×10^6 cells in 15 cm dishes and maintained in Dulbecco's modified Eagle's medium supplemented with 10% calf serum. One day later, cells are cotransfected by calcium phosphate precipitation with mammalian expression plasmids encoding p-SV-β-galactosidase (5-10 μg), receptor (1-2 μg) and G protein (1-2 μg). 40 μg salmon sperm DNA may also be included in the transfection mixture. Fresh media is added on the following day and 1-2 days later, cells are harvested and frozen in 50 assay aliquots. Cells are thawed and 100 μl added to 100 μl aliquots of various concentrations of drugs in triplicate in 96-well dishes. Incubations continue 72-96 hr at 37°. After washing with phosphate-buffered saline, β-galactosidase enzyme activity is determined by adding 200 μl of the chromogenic substrate (consisting of 3.5 mM o-nitrophenyl-β-D-galactopyranoside and 0.5% nonidet P-40 in phosphate buffered saline), incubating overnight at 30 and measuring optical density at 420 nm. The absorbance is a measure of enzyme activity, which depends on cell number and reflects a receptor-mediated cell proliferation. The EC50 and maximal effect of each drug at each alpha2 receptor is determined. The efficacy or intrinsic activity is calculated as a ratio of the maximal effect of the drug to the maximal effect of a standard full agonist for each receptor subtype. Brimonidine, also called […], the chemical structure of which is shown below, is used as the standard agonist for the alpha2A, alpha2B and alpha2C receptors. [drawing 6]
(§4) The results of the RSAT assay with several exemplary compounds of the invention are disclosed in Table 3. […] NA stands for “not active” at concentrations less than 10 micromolar. As is known EC50 is the concentration at which half of a given compound's maximal activity is observed. It can be seen from the table that the compounds of the invention are specific or selective agonists of α2B and/or α2C adrenergic receptors, with no agonist like activity or only with insignificant agonist-like activity on α2A receptors.

alpha2A receptor = target: T2, alpha2A receptor (Homo sapiens, UniProt P08913); test: Receptor Selection and Amplification Technology (RSAT) assay, alpha2A; format: cell-based; conditions: NIH-3T3 cells; for EC50: NA = not active at concentrations less than 10 micromolar, read-out: RSAT EC50 (nM) Alpha 2A; for fraction of activity of the standard (brimonidine) attained, Alpha 2A (number in parenthesis): ratio of maximal effect to that of standard full agonist brimonidine
T2 construct: expressed in transfected cells; host or cells: NIH-3T3
T2 sequence (P08913 1-465): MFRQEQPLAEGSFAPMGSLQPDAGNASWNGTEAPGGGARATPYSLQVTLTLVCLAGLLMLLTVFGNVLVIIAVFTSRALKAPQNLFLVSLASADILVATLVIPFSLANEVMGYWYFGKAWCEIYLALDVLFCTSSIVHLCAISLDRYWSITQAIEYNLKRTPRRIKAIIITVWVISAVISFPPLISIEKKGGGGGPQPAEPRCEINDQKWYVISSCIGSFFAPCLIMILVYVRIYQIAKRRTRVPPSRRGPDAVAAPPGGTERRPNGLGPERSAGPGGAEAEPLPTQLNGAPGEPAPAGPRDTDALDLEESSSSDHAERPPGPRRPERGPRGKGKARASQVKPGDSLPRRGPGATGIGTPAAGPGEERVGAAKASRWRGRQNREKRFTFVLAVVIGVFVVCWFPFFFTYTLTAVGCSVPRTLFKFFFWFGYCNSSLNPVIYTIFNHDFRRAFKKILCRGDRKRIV
Text: as §1, §2, §3
The results of the RSAT assay with several exemplary compounds of the invention are disclosed in Table 3. […] NA stands for “not active” at concentrations less than 10 micromolar. […]

alpha2C receptor = target: T3, alpha2C receptor (Homo sapiens, UniProt P18825); test: Receptor Selection and Amplification Technology (RSAT) assay, alpha2C; format: cell-based; conditions: NIH-3T3 cells; for EC50: NA = not active at concentrations less than 10 micromolar, read-out: RSAT EC50 (nM) Alpha 2C; for fraction of activity of the standard (brimonidine) attained, Alpha 2C (number in parenthesis): ratio of maximal effect to that of standard full agonist brimonidine
T3 construct: expressed in transfected cells; host or cells: NIH-3T3
T3 sequence (P18825 1-462): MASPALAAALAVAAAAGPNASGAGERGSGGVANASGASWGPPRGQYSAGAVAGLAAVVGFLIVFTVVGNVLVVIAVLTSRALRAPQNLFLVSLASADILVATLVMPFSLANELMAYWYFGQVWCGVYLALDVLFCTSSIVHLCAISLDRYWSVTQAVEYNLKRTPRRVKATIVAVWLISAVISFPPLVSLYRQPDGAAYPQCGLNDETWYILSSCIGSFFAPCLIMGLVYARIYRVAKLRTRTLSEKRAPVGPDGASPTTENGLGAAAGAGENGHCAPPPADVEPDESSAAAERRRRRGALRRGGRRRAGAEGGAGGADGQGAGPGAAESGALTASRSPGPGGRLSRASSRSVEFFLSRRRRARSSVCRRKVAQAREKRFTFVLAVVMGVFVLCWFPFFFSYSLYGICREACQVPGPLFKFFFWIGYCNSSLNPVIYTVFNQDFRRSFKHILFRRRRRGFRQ
Text: as §1, §2, §3, §4

male Sprague-Dawley rats = test: Sedative activity (exploratory behavior after i.p. injection); format: in vivo; conditions: rat, intraperitoneally, up to a dose of 300 μg/kg
Description: To test sedation, six male Sprague-Dawley rats are given up to 3 mg/kg of the test compound in a saline or DMSO vehicle by intraperitoneal injection (i.p.). Sedation is graded 30 minutes following administration of the drug by monitoring locomotor skills as follows.
The Sprague-Dawley rats are weighed and 1 ml/kg body weight of an appropriate concentration (ie. 3 mg/ml for a final dose of 3 mg/kg) drug solution is injected intraperitoneally. Typically the test compound is formulated in approximately 10 to 50% DMSO. The results are compared to controls that are injected with 1 ml/kg saline or 10 to 50% DMSO. Rat activity is then determined 30 minutes after injection of the drug solution. Rats are placed in a dark covered chamber and a digicom analyzer (Omnitech Electronic) quantitates their exploratory behavior for a five-minute period. The machine records each time the rat interrupts an array of 32 photoelectric beams in the X and Y orientation.

[1] = tested on: rats with ligated L5 and L6 spinal nerves; test: Alleviation of chronic pain: tactile allodynia after L5/L6 spinal nerve ligation (von Frey hairs); format: in vivo, rat; conditions: 30 minutes after administration, ±SEM
Text: A model for chronic pain (in particular peripheral neuropathy such as causalgia) involves the surgical ligation of the L5 (and optionally the L6) spinal nerves on one side in experimental animals. Rats recovering from the surgery gain weight and display a level of general activity similar to that of normal rats. However, these rats develop abnormalities of the foot, wherein the hindpaw is moderately everted and the toes are held together. More importantly, the hindpaw on the side affected by the surgery appears to become sensitive to pain from low-threshold mechanical stimuli, such as that producing a faint sensation of touch in a human, within about 1 week following surgery. This sensitivity to normally non-painful touch is called “tactile allodynia” and lasts for at least two months. The response includes lifting the affected hindpaw to escape from the stimulus, licking the paw and holding it in the air for many seconds. None of these responses is normally seen in the control group.
Rats are anesthetized before surgery. The surgical site is shaved and prepared either with betadine or Novacaine. Incision is made from the thoracic vertebra XIII down toward the sacrum. Muscle tissue is separated from the spinal vertebra (left side) at the L4-S2 levels. The L6 vertebra is located and the transyerse process is carefully removed with a small rongeur to expose the L4-L6 spinal nerves. The L5 and L6 spinal nerves are isolated and tightly ligated with 6-0 silk thread. The same procedure is done on the right side as a control, except no ligation of the spinal nerves is performed. A complete hemostasis is confirmed, then the wounds are sutured. A small amount of antibiotic ointment is applied to the incised area, and the rat is transferred to the recovery plastic cage under a regulated heat-temperature lamp. On the day of the experiment, at least seven days after the surgery, typically six rats per test group are administered the test drugs by intraperitoneal (i.p.) injection or oral gavage. For i.p. injection, the compounds are formulated in approximately 10 to 50% DMSO and given in a volume of 1 ml/kg body weight.
Tactile allodynia is measured prior to and 30 minutes after drug administration using von Frey hairs that are a series of fine hairs with incremental differences in stiffness. Rats are placed in a plastic cage with a wire mesh bottom and allowed to acclimate for approximately 30 minutes. The von Frey hairs are applied perpendicularly through the mesh to the mid-plantar region of the rats' hindpaw with sufficient force to cause slight buckling and held for 6-8 seconds. The applied force has been calculated to range from 0.41 to 15.1 grams. If the paw is sharply withdrawn, it is considered a positive response. A normal animal will not respond to stimuli in this range, but a surgically ligated paw will be withdrawn in response to a 1-2 gram hair. The 50% paw withdrawal threshold is determined using the method of Dixon, […]. The post-drug threshold is compared to the pre-drug threshold and the percent reversal of tactile sensitivity is calculated based on a normal threshold of 15.1 grams. The results are expressed in per cent (%) MPE, where the MPE value reflects the percentage reversal of pain threshold to that of a normal animal (100%). Table 4 below indicates results of this test with Compounds 8, 34 and 40 of the invention, administered i.p., in intrathecal and oral doses.

SMILES	EC50 (alpha2B receptor)	fraction of activity of the standard (brimonidine) attained, Alpha 2B (number in parenthesis) (alpha2B receptor)	EC50 (alpha2A receptor)	fraction of activity of the standard (brimonidine) attained, Alpha 2A (number in parenthesis) (alpha2A receptor)	EC50 (alpha2C receptor)	fraction of activity of the standard (brimonidine) attained, Alpha 2C (number in parenthesis) (alpha2C receptor)	sedative effect (male Sprague-Dawley rats)	% MPE ([1]; IP dose 10 μg/kg)	% MPE ([1]; IP dose 30 μg/kg)	% MPE ([1]; IP dose 100 μg/kg)	% MPE ([1]; IP dose 300 μg/kg)	% MPE ([1]; IP dose 1000 μg/kg)	% MPE ([1]; IP dose 3000 μg/kg)	% MPE ([1]; Oral dose 1000 μg/kg)
CC[C@H]1CCCC[C@@H]1NC(=S)NCCO (relative stereo) [Compound 37, 1-(trans-2-Ethyl-cyclohexyl)-3-(2-hydroxy-ethyl)-thiourea]	2 nM	(0.93)	14 nM	(0.4)	106 nM	(0.4)	–	–	–	–	–	–	–	–
CC1=C(C)C(NC(=S)NCCO)CC1 (stereo not shown) [Compound 15, 1-(2,3-Dimethyl-cyclopent-2-enyl)-3-(2-hydroxy-ethyl)-thiourea]	5 nM	(1.08)	515 nM	(0.4)	197 nM	(0.4)	–	–	–	–	–	–	–	–
C[C@H]1CC[C@H](NC(=S)NCCO)CC1 [Compound 40, 1-(2-Hydroxy-ethyl)-3-(4-methyl-cyclohexyl)-thiourea]	57 nM	(0.62)	–	–	–	–	no sedative effect	0.1 ± 1.8 % MPE	42 ± 9.2 % MPE	46 ± 7.1 % MPE	77 ± 8.0 % MPE	83 ± 7.0 % MPE	90 ± 6.1 % MPE	80 ± 6.1 % MPE
